From patent US20240124417A1, “COMPOUNDS USEFUL AS IMMUNOMODULATORS” (Bristol-Myers Squibb Company, priority 2019, published 2024)

These compounds were tested against T1, PD-1/PD-L1 (Homo sapiens, UniProt Q9NZQ7) (assay: PD-1/PD-L1 Homogenous Time-Resolved Fluorescence (HTRF) binding assay). Details: PD-L1-His 10 nM, PD-1-Ig 20 nM.
T1 construct: TVMV protease site linker (C); made in house; host or cells: HEK293T cells
Source text: The ability of the compounds of the invention to bind to PD-L1 was investigated using a PD-1/PD-L1 Homogenous Time-Resolved Fluorescence (HTRF) binding assay.
Homogenous Time-Resolved Fluorescence (HTRF) binding assay.
The interaction of PD-1 and PD-L1 can be assessed using soluble, purified preparations of the extracellular domains of the two proteins. The PD-1 and PD-L1 protein extracellular domains were expressed as fusion proteins with detection tags, for PD-1, the tag was the Fc portion of Immunoglobulin (PD-1-Ig) and for PD-L1 it was the 6 histidine motif (PD-L1-His). All binding studies were performed in an HTRF assay buffer consisting of dPBS supplemented with 0.1% […] bovine serum albumin and 0.05% (v/v) Tween-20. For the h/PD-L1-His binding assay, inhibitors were pre-incubated with PD-L1-His (10 nM final) for 15 m in 4 μl of assay buffer, followed by addition of PD-1-Ig (20 nM final) in 1 μl of assay buffer and further incubation for 15 m. HTRF detection was achieved using europium crypate-labeled anti-Ig (1 nM final) and allophycocyanin (APC) labeled anti-His (20 nM final). Antibodies were diluted in HTRF detection buffer and 5 μl was dispensed on top of the binding reaction. […] Additional binding assays were established between the human proteins PD-1-Ig/PD-L2-His (20 & 5 nM, respectively) and CD80-His/PD-L1-Ig (100 & 10 nM, respectively). […]

T1 sequence (Q9NZQ7 18-239): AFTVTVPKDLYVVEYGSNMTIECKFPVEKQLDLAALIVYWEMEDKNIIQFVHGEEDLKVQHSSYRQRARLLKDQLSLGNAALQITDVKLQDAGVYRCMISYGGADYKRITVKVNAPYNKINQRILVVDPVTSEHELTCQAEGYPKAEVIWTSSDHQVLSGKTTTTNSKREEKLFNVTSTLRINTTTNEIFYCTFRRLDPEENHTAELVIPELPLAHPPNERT

IC50 [nM]	SMILES
2	Cc1c(COc2cc(OCc3cncc(C#N)c3)c(CN3CCC4C(C3)C(CO)=NN4C)cc2Cl)cccc1-c1cccc(OCC2CCCN(C)C2)c1Cl (stereo not shown) [Example 1029, 5-((4-Chloro-5-((2′-chloro-2-methyl-3′-((1-methylpiperidin-3-yl)methoxy)-[1,1′-biphenyl]-3-yl)methoxy)-2-((3-(hydroxymethyl)-1-methyl-1,3a,4,6,7,7a-hexahydro-5H-pyrazolo[4,3-c]pyridin-5-yl)methyl)phenoxy)methyl)nicotinonitrile]
0.2	Cc1c(COc2cc(OCc3cncc(C#N)c3)c(CN(C)C(C)c3nnn[nH]3)cc2Cl)cccc1-c1cccc(OCCCNC[C@H](O)CO)c1C (stereo partly drawn) [Example 1030, 5-((2-(((1-(1H-Tetrazol-5-yl)ethyl)(methyl)amino)methyl)-4-chloro-5-((3′-(3-(((S)-2,3-dihydroxypropyl)amino)propoxy)-2,2′-dimethyl-[1,1′-biphenyl]-3-yl)methoxy)-phenoxy)methyl)nicotinonitrile]
0.8	Cc1c(COc2cc(OCc3cncc(C#N)c3)c(CN3CCCCC3c3cn[nH]c3)cc2Cl)cccc1-c1cccc(OCCCNC[C@H](O)CO)c1Cl (stereo partly drawn) [Example 1032, 5-((2-((2-(1H-Pyrazol-4-yl)piperidin-1-yl)methyl)-4-chloro-5-((2′-chloro-3′-(3-(((S)-2,3-dihydroxypropyl)amino)propoxy)-2-methyl-[1,1′-biphenyl]-3-yl)methoxy)phenoxy)-methyl)nicotinonitrile]
2.1	Cc1c(COc2cc(OCc3cncc(C#N)c3)c(CN3CCC(c4nnn[nH]4)C3)cc2Cl)cccc1-c1cccc(OCCCNC[C@H](O)CO)c1Cl (stereo partly drawn) [Example 1033, 5-((2-((3-(1H-Tetrazol-5-yl)pyrrolidin-1-yl)methyl)-4-chloro-5-((2′-chloro-3′-(3-(((S)-2,3-dihydroxypropyl)amino)propoxy)-2-methyl-[1,1′-biphenyl]-3-yl)methoxy)phenoxy)-methyl)nicotinonitrile]
0.4	Cc1c(COc2cc(OCc3cncc(C#N)c3)c(CN(C)C(C)c3nnn[nH]3)cc2Cl)cccc1-c1cccc(OCCCNC[C@H](O)CO)c1Cl (stereo partly drawn) [Example 1034, 5-((2-(((1-(1H-Tetrazol-5-yl)ethyl)(methyl)amino)methyl)-4-chloro-5-((2′-chloro-3′-(3-(((S)-2,3-dihydroxypropyl)amino)propoxy)-2-methyl-[1,1′-biphenyl]-3-yl)methoxy)-phenoxy)methyl)-nicotinonitrile]
1.3	Cc1c(COc2cc(OCc3cncc(C#N)c3)c(CN(C)CC(C)c3nnn[nH]3)cc2Cl)cccc1-c1cccc(OCCCNC[C@H](O)CO)c1Cl (stereo partly drawn) [Example 1035, 5-((2-(((2-(1H-Tetrazol-5-yl)propyl)(methyl)amino)methyl)-4-chloro-5-((2′-chloro-3′-(3-(((S)-2,3-dihydroxypropyl)amino)propoxy)-2-methyl-[1,1′-biphenyl]-3-yl)methoxy)-phenoxy)methyl)nicotinonitrile]
4.2	CC(=O)NC1CCN(CCCOc2cccc(-c3cccc(COc4cc(OCc5cncc(C#N)c5)c(CNc5nnn[nH]5)cc4Cl)c3C)c2C)CC1 [Example 1036, N-(1-(3-((3′-((4-(((1H-Tetrazol-5-yl)amino)methyl)-2-chloro-5-((5-cyanopyridin-3-yl)-methoxy)phenoxy)methyl)-2,2′-dimethyl-[1,1′-biphenyl]-3-yl)oxy)propyl)piperidin-4-yl)-acetamide]
2.8	CC(=O)NC1CCN(CCCOc2cccc(-c3cccc(COc4cc(OCc5cncc(C#N)c5)c(CN(C)CCc5nn[nH]n5)cc4Cl)c3C)c2C)CC1 [Example 1037, N-(1-(3-((3′-((4-(((2-(2H-Tetrazol-5-yl)ethyl)(methyl)amino)methyl)-2-chloro-5-((5-cyanopyridin-3-yl)methoxy)phenoxy)methyl)-2,2′-dimethyl-[1,1′-biphenyl]-3-yl)oxy)-propyl)piperidin-4-yl)acetamide]
3.7	CC(=O)NC1CCN(CCCOc2cccc(-c3cccc(COc4cc(OCc5cncc(C#N)c5)c(CN5CCCC(c6ncc[nH]6)C5)cc4Cl)c3C)c2C)CC1 (stereo not shown) [Example 1038, N-(1-(3-((3′-((4-((3-(1H-Imidazol-2-yl)piperidin-1-yl)methyl)-2-chloro-5-((5-cyano-pyridin-3-yl)methoxy)phenoxy)methyl)-2,2′-dimethyl-[1,1′-biphenyl]-3-yl)oxy)propyl)-piperidin-4-yl)acetamide]
2.7	CC(=O)NC1CCN(CCCOc2cccc(-c3cccc(COc4cc(OCc5cncc(C#N)c5)c(CN5CCCC(c6nnc[nH]6)C5)cc4Cl)c3C)c2C)CC1 (stereo not shown) [Example 1039, N-(1-(3-((3′-((4-((3-(4H-1,2,4-Triazol-3-yl)piperidin-1-yl)methyl)-2-chloro-5-((5-cyano-pyridin-3-yl)methoxy)phenoxy)methyl)-2,2′-dimethyl-[1,1′-biphenyl]-3-yl)oxy)propyl)-piperidin-4-yl)acetamide]
2.3	CC(=O)NC1CCN(CCCOc2cccc(-c3cccc(COc4cc(OCc5cncc(C#N)c5)c(CN(C)C(C)c5nnn[nH]5)cc4Cl)c3C)c2C)CC1 (stereo not shown) [Example 1040, N-(1-(3-((3′-((4-(((1-(1H-Tetrazol-5-yl)ethyl)(methyl)amino)methyl)-2-chloro-5-((5-cyanopyridin-3-yl)methoxy)phenoxy)methyl)-2,2′-dimethyl-[1,1′-biphenyl]-3-yl)oxy)-propyl)piperidin-4-yl)acetamide]

Second part, the compound before the results:

SMILES	IC50 [nM]
Cc1c(COc2cc(OCc3cncc(C#N)c3)c(CN3CCCCC3c3cc[nH]n3)cc2Cl)cccc1-c1cccc(OCC2CCCN(C)C2)c1Cl (stereo not shown) [Example 1021, 5-((2-((2-(1H-Pyrazol-3-yl)piperidin-1-yl)methyl)-4-chloro-5-((2′-chloro-2-methyl-3′-((1-methyl-piperidin-3-yl)methoxy)-[1,1′-biphenyl]-3-yl)methoxy)phenoxy)methyl)-nicotinonitrile]	1.8
Cc1c(COc2cc(OCc3cncc(C#N)c3)c(CN3CCCCC3c3cnn(C)c3)cc2Cl)cccc1-c1cccc(OCC2CCCN(C)C2)c1Cl (stereo not shown) [Example 1022, 5-((4-Chloro-5-((2′-chloro-2-methyl-3′-((1-methylpiperidin-3-yl)methoxy)-[1,1′-biphenyl]-3-yl)methoxy)-2-((2-(1-methyl-1H-pyrazol-4-yl)piperidin-1-yl)methyl)phenoxy)-methyl)nicotinonitrile]	1.3
Cc1c(COc2cc(OCc3cncc(C#N)c3)c(CN3CCCC(c4cnn(C)c4)C3)cc2Cl)cccc1-c1cccc(OCC2CCCN(C)C2)c1Cl (stereo not shown) [Example 1023, 5-((4-Chloro-5-((2′-chloro-2-methyl-3′-((1-methylpiperidin-3-yl)methoxy)-[1,1′-biphenyl]-3-yl)methoxy)-2-((3-(1-methyl-1H-pyrazol-4-yl)piperidin-1-yl)methyl)-phenoxy)methyl)nicotinonitrile]	0.2
Cc1c(COc2cc(OCc3cncc(C#N)c3)c(CN3CCCC(c4ccn[nH]4)C3)cc2Cl)cccc1-c1cccc(OCC2CCCN(C)C2)c1Cl (stereo not shown) [Example 1024, 5-((2-((3-(1H-Pyrazol-5-yl)piperidin-1-yl)methyl)-4-chloro-5-((2′-chloro-2-methyl-3′-((1-methylpiperidin-3-yl)methoxy)-[1,1′-biphenyl]-3-yl)methoxy)phenoxy)methyl)-nicotinonitrile]	0.7
Cc1c(COc2cc(OCc3cncc(C#N)c3)c(CN3CCCC3c3cn[nH]c3)cc2Cl)cccc1-c1cccc(OCC2CCCN(C)C2)c1Cl (stereo not shown) [Example 1025, 5-((2-((2-(1H-Pyrazol-4-yl)pyrrolidin-1-yl)methyl)-4-chloro-5-((2′-chloro-2-methyl-3′-((1-methylpiperidin-3-yl)methoxy)-[1,1′-biphenyl]-3-yl)methoxy)phenoxy)methyl)-nicotinonitrile]	0.5
Cc1c(COc2cc(OCc3cncc(C#N)c3)c(CN3CCCC3c3ccn[nH]3)cc2Cl)cccc1-c1cccc(OCC2CCCN(C)C2)c1Cl (stereo not shown) [Example 1026, 5-((2-((2-(1H-Pyrazol-5-yl)pyrrolidin-1-yl)methyl)-4-chloro-5-((2′-chloro-2-methyl-3′-((1-methylpiperidin-3-yl)methoxy)-[1,1′-biphenyl]-3-yl)methoxy)phenoxy)methyl)-nicotinonitrile]	1.5
Cc1n[nH]c(C)c1C(NCc1cc(Cl)c(OCc2cccc(-c3cccc(OCC4CCCN(C)C4)c3Cl)c2C)cc1OCc1cncc(C#N)c1)C(=O)O (stereo not shown) [Example 1027, 2-((5-Chloro-4-((2′-chloro-2-methyl-3′-((1-methylpiperidin-3-yl)methoxy)-[1,1′-biphenyl]-3-yl)methoxy)-2-((5-cyanopyridin-3-yl)methoxy)benzyl)amino)-2-(3,5-dimethyl-1H-pyrazol-4-yl)acetic acid]	1.1
Cc1c(COc2cc(OCc3cncc(C#N)c3)c(CNC(C(=O)O)c3cnn(C)c3)cc2Cl)cccc1-c1cccc(OCC2CCCN(C)C2)c1Cl (stereo not shown) [Example 1028, 2-((5-Chloro-4-((2′-chloro-2-methyl-3′-((1-methylpiperidin-3-yl)methoxy)-[1,1′-biphenyl]-3-yl)methoxy)-2-((5-cyanopyridin-3-yl)methoxy)benzyl)amino)-2-(1-methyl-1H-pyrazol-4-yl)acetic acid]	1.9
